Source: article PMC8624133, “10th Trends in Medical Mycology Held on 8 to 11 October 2021, Aberdeen, Scotland, Organized by the European Confederation of Medical Mycology (ECMM)” (Journal of Fungi, 2021)
Converted amounts (≈) assume the structure as drawn. “And” between values parts separate entries of the source, which are not always exact repeats. Identical values can stand only once. Residues, ends and D or L forms follow the SMILES beside them. *: point of attachment. βNA = c1ccc2cc(N*)ccc2c1

Legend:
[1] = tested on: Scedosporium and Lomentospora species; assay: Biofilm assay; assay type: cell-based
Experimental: (§1) Materials & Methods: Antifungal susceptibility tests and biofilm assay were performed to evaluate the activity of miltefosine against Scedosporium and Lomentospora species. Electron microscopy and fluorescent dyes, such as 2′,7′ –dichlorofluorescein diacetate and JC-1, were used to check the effects on cell integrity, oxidative stress and mitochondrial membrane potential, respectively. Miltefosine effects on fungal membrane were evaluated by fillipin staining, the susceptibility to membrane and cell wall stressors and the analysis of cell membrane permeability. Sinergystic assay was performed to check miltefosine interaction with current antifungal agents used in clinical settings.

[2] = tested on: Scedosporium and Lomentospora species; assay: Antifungal susceptibility tests; assay type: cell-based
Experimental: as §1

A. fumigatus complex = details: share of isolates, n = 59, EUCAST clinical breakpoints
McLDM-F5-CPR = assay: microbe, parasite or virus in culture; assay type: cell-based, Saccharomyces cerevisiae AD2Δgal; details: Saccharomyces cerevisiae, read-out: mean MIC
[3] = Triazole drug levels in ABPA patients with asthma; assay type: in vivo, human; details: 452 patients, Oct 2009 to March 2021
Excerpt: Materials & Methods: This was a retrospective single-centre cohort study evaluating longitudinal outcomes in non-cystic fibrosis (CF) ABPA patients with underlying chronic lung disease (asthma), and description of treatment approaches. Statistical Analysis System (SAS) programming was used for data integration from multiple hospital electronic systems, for patient identification and data analysis. Criteria for inclusion were patients with a background of asthma, serum Total IgE >1000 IU/mL and a positive Aspergillus IgE, with or without a positive culture for A. fumigatus from a respiratory sample. Data collected included demographics, lung function severity, disease activity serological markers (Aspergillus IgE, Aspergillus IgG, Total IgE) and triazole levels. In this study the impact of fungal therapy on disease outcomes was assessed.

[4] = tested on: azole-resistant A. fumigatus SS clinical strains; assay: EUCAST E.DEF 9.3.2; assay type: cell-based; details: Aspergillus fumigatus
ISV blood levels, HPLC = assay type: in vivo, human; details: for samples with level <1 mg/L: ICU
Experimental: Materials & Methods: ISV levels are routinely tested in our centre HPLC method. The lowest limit of quantification was set at 0.15 mg/L. ISV blood levels obtained between January 2017 and May 2021 were analysed and compared between those obtained from patients in ICU vs. others. Chi-square/Fisher’s exact test and Mann-Whitney test were used for categorical and continuous variables, respectively. Levels of ISV <1 mg/L were defined as low.

A. flavus complex = details: n = 6, EUCAST clinical breakpoints
A. nidulans complex = details: all isolates, n = 2
[5] = tested on: C. auris Isolate B and Isolate C; assay: microbe, parasite or virus in culture; assay type: cell-based, Candida auris
[6] = tested on: A. fumigatus veterinary isolates; assay: EUCAST microdilution of veterinary isolates; assay type: cell-based, Aspergillus fumigatus
Experimental: All have been confirmed as A. fumigatus by MALDI-TOF MS using the BCCM/IHEM database. The antifungal susceptibility was evaluated using the microdilution EUCAST method. Cyp51A gene sequencing has been performed on all resistant isolates.

[7] = tested on: dermatophyte standard strains and clinical isolates; assay: Broth microdilution MIC; assay type: cell-based, Trichophyton and Microsporum spp.; details: all tested strains
Experimental: (§2) Materials & Methods: The minimum inhibitory concentration (MIC) of honokiol was assessed by broth microdilution method against standard strains (Trichophyton rubrum ATCC 28188, Trichophyton mentagrophytes ATCC 9533), and clinical isolates (T. rubrum, T. ajelloi, Microsporum canis and M. gypseum). Evaluation of honokiol effect on ergosterol biosynthesis was assessed by high performance liquid chromatography. Checkerboard microtiter method was used to identify synergistic combinations of honokiol with terbinafine against Trichophyton rubrum ATCC 28188. The combinatorial effect was evaluated by calculating the fractional inhibitory concentration index (FICI).

T. rubrum = assay: Ergosterol content by HPLC; assay type: cell-based, Trichophyton rubrum; details: control 13.56 ± 0.35 mg%
Experimental: as §2

[8] = tested on: Trichophyton rubrum ATCC 28188; assay: Checkerboard microtiter method with terbinafine; assay type: cell-based; details: honokiol + terbinafine, additive interactions
Experimental: as §2

Candida tropicalis = assay: CLSI M27-A3/M27-S4 MIC and MFC; assay type: cell-based
Experimental: (§3) Methods & Materials: To evaluate the antifungal effect of each combination of nystatin and morencidine-like peptide, the protocol presented in CLSI M27-A3 and CLSI M27-S4 was used and the minimum inhibitory concentration was determined.

Candida albicans = assay: CLSI M27-A3/M27-S4 MIC and MFC; assay type: cell-based
Experimental: as §3

Candida glabrata = assay: CLSI M27-A3/M27-S4 MIC and MFC; assay type: cell-based
Experimental: as §3

[9] = tested on: M. circinelloides and R. microsporus; assay: Chequerboard dilution with posaconazole; assay type: cell-based, Mucor circinelloides, Rhizopus microsporus; details: PaβN + posaconazole; five ATCC or clinical isolates
Experimental: (§4) Methods: The inhibitory effect of PaβN on transporters activity was assessed by measuring the efflux of their fluorescent substrate rhodamine 6G following glucose injection. The interaction of PaβN and posaconazole was assessed by the chequerboard dilution method in order to determine the fractional inhibitory concentration index (FICI).

[10] = tested on: drug transporters of M. circinelloides and R. microsporus; assay: Rhodamine 6G efflux following glucose injection; assay type: cell-based, Mucor circinelloides, Rhizopus microsporus
Experimental: as §4

A. fumigatus conidia = assay: Conidia killing by epithelial cells with sulfide donor; assay type: cell-based, Aspergillus fumigatus
Excerpt: Materials & Methods: We deleted A. fumigatus genes to identify the enzymes primarily responsible for persulfidation as confirmed by fluorescence proteomic and microscopic analyses. We then used enzymatic assays, killing experiments and murine models to characterize the relevance of persulfidation for A. fumigatus virulence. We performed a genetic association study of the frequencies of a Single Nucleotide Polymorphism (SNP) in the human gene with the probability of suffering Invasive pulmonary aspergillosis (IPA) in hematopoietic stem cell transplant (HSCT) recipients. Next, we investigated the antifungal capacities of host cells using our engineered A549 cell line and alveolar macrophages and neutrophils derived from knock-out mice. Subsequenlty we investigated the interdependency of fungal and human persulfidation levels using Western-blot and fluorescence microscopy. Finally, we performed killing assays in the presence of a sulfide donor to potentiate host persulfidation.

[11] = tested on: invasive fungal diseases (IFDs); details: 41 patients; ref published case reports, PubMed and Embase, 1990–2020; cited from earlier work
Excerpt: Among the 41 patients with IFDs, were those with invasive candidiasis and invasive mould diseases, including those caused by Aspergillus spp., Mucorales, and Fusarium spp. Sixteen (39%) had baseline neutropenia and 27 (66%) were considered to be refractory to standard therapy prior to GM-CSF administration. Among the 41 patients with IFDs, complete responses were reported in 35 (85%) patients and partial response in 1 patient, with 5 patients having no or unclear response. || Previously published case reports on the use of GM-CSF for adjunctive treatment of IFDs are summarized in Table 2. […]

C. albicans = assay: Neutrophil control of hyphal growth (swarming); assay type: cell-based, Candida albicans; details: neutrophils of SOT and SCT recipients, ex vivo
Experimental: Methods and Materials: Twenty-one SOT, 19 SCT and 23 healthy control patients (HC) were identified and consented at primary care/outpatient transplant clinics. Transplant recipients were enrolled at a time period two to four months post-transplant. Following consent and peripheral blood collection, neutrophils were freshly isolated and co-incubated with C. albicans and the percent remaining live yeast was measured using a viability dye compared to a standard control to determine fungal elimination by neutrophils. Growth inhibition of C. albicans was also quantified by neutrophil swarming to yeast spotted onto glass slides, assessed by live cell imaging with or without G-CSF. Effect of soluble factors on neutrophils function was determined by incubation of healthy neutrophils with SOT and SCT serum and measuring ability to control C. albicans.

CCCCCCCCCCCCCCCCOP(=O)([O-])OCC[N+](C)(C)C [Miltefosine, miltefosine]
biofilm formation [1]: reduced biofilm formation | inhibitory concentration [2]: 2 to 4 µg/mL

C[C@@H](c1nc(-c2ccc(C#N)cc2)cs1)[C@](O)(Cn1cncn1)c1cc(F)ccc1F [isavuconazole]
Resistance (A. fumigatus complex): 5% | MIC (McLDM-F5-CPR): 4 µg/mL (≈ 9.14 µM) | median trough drug level [3]: 3.29 mg/L | MIC ([4]; strain from pleural fluid of an ICU patient, no mutations in cyp51A): 1 µg/mL (≈ 2.29 µM) | MIC ([4]; two strains from a cystic fibrosis patient, TR34/L98H): 8 µg/mL (≈ 18.3 µM) | median blood level (ISV blood levels, HPLC; 265 samples, 63 patients, first two months): 3.3 mg/L | blood level range (ISV blood levels, HPLC; ICU patients): 0 to 8480 ng/mL | median blood level (ISV blood levels, HPLC; ICU patients): 1.95 mg/L | samples with level <1 mg/L (ISV blood levels, HPLC; during renal replacement therapy, 7/24): 29.2% | samples with level <1 mg/L (ISV blood levels, HPLC; not receiving RRT, 7/46): 15.2% | blood level range (ISV blood levels, HPLC; all samples): 0 to 14520 ng/mL | blood level range (ISV blood levels, HPLC; non-ICU patients): 0 to 14520 ng/mL | median blood level (ISV blood levels, HPLC; non-ICU patients): 4.1 mg/L | isolates resistant (A. flavus complex): 17% | resistance of isolates (A. nidulans complex): resistant | change of MIC [5]: largely unchanged | reduction in MIC ([5]; Isolate C with ERG11 WT in place of K143R): 2 fold | isolates in the area of technical uncertainty (ATU) [6]: 27% | resistance of isolates [6]: No resistance

C=CCc1ccc(O)c(-c2ccc(O)c(CC=C)c2)c1 [honokiol, Honokiol]
MIC [7]: 8 to 16 µg/mL | ergosterol content (T. rubrum): 9.52 ± 0.43 mg% | FICI [8]: 0.53–0.75

C[C@@H]1[C@H](O)[C@@H](C)/C=C/C=C/CC/C=C/C=C/C=C/C=C/C(O[C@H]2O[C@H](C)[C@@H](O)[C@H](N)[C@@H]2O)CC2O[C@](O)(CC(O)C(O)CCC(O)CC(O)CC(O)CC(=O)O[C@H]1C)CC(O)C2C(=O)O (some centres unmarked) [nystatin]
MIC (maximum inhibitory effect) (Candida tropicalis): 0.625 µg/mL | MIC (maximum inhibitory effect) (Candida albicans): 1.25 µg/mL | MIC (maximum inhibitory effect) (Candida glabrata): 1.25 µg/mL

NC(N)=NCCC[C@H](NC(=O)[C@@H](N)Cc1ccccc1)C(=O)Nc1ccc2ccccc2c1 [PaβN, Phenylalanine-Arginine Beta-Naphthylamide] (H-Phe-Arg-βNA)
FICI [9]: 0.5 and 0.5 to 0.6 | efflux of rhodamine 6G [10]: decrease the efflux of rhodamine 6G

C1COCCN1.COc1ccc(P(=S)(S)N2CCOCC2)cc1 (centres unmarked) [GY4137]
conidia killing capacity of epithelial cells (A. fumigatus conidia): enhanced

Granulocyte-macrophage colony stimulating factor [GM-CSF]
complete responses, n (%) [11]: 35 (85%) | neutrophil ability to control hyphal growth (C. albicans): partially restored
